Results from ChEMBL document CHEMBL1629630, “Inhibition of inositol phosphorylceramide synthase by the cyclic peptide aureobasidin A” (Antimicrob Agents Chemother, 2009).
Several values for one entry are separate records, joined by “and”; a condition that tells them apart may be missing. Identical values can stand only once. Activity calls are given as the source filed them. The calls are words filed in the database; no cut-off is given here. Numbered stars: 1 amine (or outer) side, 2 acyl side, 3 side chain; on linkers, the order of the positions; unused ones are H or OH. Square brackets hold non-standard residues; d marks the D form. Peptide text beside a SMILES is read from it. X1 = CC[C@@H](C)[C@@H](O[*:1])C(=O)[*:2]; NMeVal(β-OH) = CN[C@H](C(=O)O)C(C)(C)O; NMeF = CN[C@@H](Cc1ccccc1)C(=O)O; aIle = CC[C@@H](C)[C@H](N)C(=O)O; NMeV = CN[C@H](C(=O)O)C(C)C

Columns and labels:
[1] = molecular target: T1, Inositol phosphorylceramide synthase (Candida albicans (strain SC5314 / ATCC MYA-2876) (Yeast), UniProt O13332); assay: Reversible inhibition of Candida albicans inositol phosphorylceramide synthase
T1 sequence (O13332 whole entry): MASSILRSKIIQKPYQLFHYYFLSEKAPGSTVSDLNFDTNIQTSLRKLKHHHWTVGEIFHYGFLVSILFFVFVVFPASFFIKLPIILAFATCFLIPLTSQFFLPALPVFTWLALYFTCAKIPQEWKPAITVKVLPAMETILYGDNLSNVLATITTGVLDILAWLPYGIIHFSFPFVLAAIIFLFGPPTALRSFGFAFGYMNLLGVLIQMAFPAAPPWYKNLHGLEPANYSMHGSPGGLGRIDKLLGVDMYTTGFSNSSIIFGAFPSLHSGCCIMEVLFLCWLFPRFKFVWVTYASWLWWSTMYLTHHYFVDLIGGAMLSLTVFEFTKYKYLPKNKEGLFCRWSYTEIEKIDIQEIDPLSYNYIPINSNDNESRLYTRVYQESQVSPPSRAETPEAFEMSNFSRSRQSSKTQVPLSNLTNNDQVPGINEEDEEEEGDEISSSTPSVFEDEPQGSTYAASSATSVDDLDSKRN

[2] = molecular target: Inositol phosphorylceramide synthase catalytic subunit AUR1 (Saccharomyces cerevisiae S288c, UniProt P36107); assay: Inhibition of aureobasidin A-resistant Saccharomyces cerevisiae inositol phosphorylceramide synthase preincubated for 30 mins
[3] = molecular target: T2, Inositol phosphorylceramide synthase catalytic subunit AUR1 (Saccharomyces cerevisiae S288c, UniProt P36107); assay: Inhibition of Saccharomyces cerevisiae SJ21R inositol phosphorylceramide synthase preincubated for 30 mins
T2 sequence (P36107 whole entry): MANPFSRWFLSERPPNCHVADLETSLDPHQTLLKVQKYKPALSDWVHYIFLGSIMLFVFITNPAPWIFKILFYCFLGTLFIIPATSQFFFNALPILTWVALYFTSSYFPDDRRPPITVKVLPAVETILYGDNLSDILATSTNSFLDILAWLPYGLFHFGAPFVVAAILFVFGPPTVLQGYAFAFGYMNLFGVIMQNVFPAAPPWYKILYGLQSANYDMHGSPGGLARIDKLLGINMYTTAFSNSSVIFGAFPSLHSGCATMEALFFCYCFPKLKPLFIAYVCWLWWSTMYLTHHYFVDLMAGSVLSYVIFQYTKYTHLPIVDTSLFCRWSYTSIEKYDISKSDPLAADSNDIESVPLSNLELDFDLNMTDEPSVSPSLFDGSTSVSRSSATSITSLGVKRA

[4] = molecular target: T1, Inositol phosphorylceramide synthase
Description: (§1) Inhibition of Candida albicans ATCC 38247 inositol phosphorylceramide synthase preincubated for 30 mins

[5] = molecular target: T2, Inositol phosphorylceramide synthase catalytic subunit AUR1; assay: Reversible inhibition of Saccharomyces cerevisiae inositol phosphorylceramide synthase
[6] = molecular target: T3, Aureobasidin-resistance protein (Neosartorya fumigata (Aspergillus fumigatus), UniProt Q9Y745); assay: Inhibition of Aspergillus fumigatus inositol phosphorylceramide synthase
T3 sequence (Q9Y745 whole entry): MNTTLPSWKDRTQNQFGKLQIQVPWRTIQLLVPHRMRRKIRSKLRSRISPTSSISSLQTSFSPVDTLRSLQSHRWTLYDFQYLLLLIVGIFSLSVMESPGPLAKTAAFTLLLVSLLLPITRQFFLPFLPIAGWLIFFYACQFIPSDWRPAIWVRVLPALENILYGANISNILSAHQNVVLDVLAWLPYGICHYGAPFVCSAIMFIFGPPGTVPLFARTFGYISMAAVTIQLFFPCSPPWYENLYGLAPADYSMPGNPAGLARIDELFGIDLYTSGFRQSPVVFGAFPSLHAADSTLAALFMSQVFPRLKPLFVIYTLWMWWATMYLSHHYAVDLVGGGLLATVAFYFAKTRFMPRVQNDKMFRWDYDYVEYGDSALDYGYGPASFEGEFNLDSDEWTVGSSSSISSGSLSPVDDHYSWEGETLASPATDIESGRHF

[7] = molecular target: T4, Inositol phosphorylceramide synthase (Candida albicans (strain SC5314 / ATCC MYA-2876) (Yeast)) (UniProt O13332); conditions: ATCC 38247
T4 sequence (whole entry): T1 sequence (O13332 whole entry)
Description: as §1

[8] = molecular target: T4, Inositol phosphorylceramide synthase (Candida albicans (strain SC5314 / ATCC MYA-2876) (Yeast)); assay: Irreversible inhibition of Candida albicans ATCC 38247 inositol phosphorylceramide synthase
[9] = molecular target: T2, Inositol phosphorylceramide synthase catalytic subunit AUR1; assay: Inhibition of Saccharomyces cerevisiae inositol phosphorylceramide synthase
[10] = molecular target: T4, Inositol phosphorylceramide synthase (Candida albicans (strain SC5314 / ATCC MYA-2876) (Yeast)); assay: Inhibition of Candida albicans ATCC 38247 inositol phosphorylceramide synthase; conditions: TDE = time-dependent effect
[11] = molecular target: T1, Inositol phosphorylceramide synthase; assay: Inhibition of Candida albicans inositol phosphorylceramide synthase

| Compound | IC50 [2] [nM] | IC50 [3] [nM] | Ki [4] [nM] | inhibition [10] | IC50 [11] [nM] | further results |
| --- | --- | --- | --- | --- | --- | --- |
| C=C1/C=C(\C)[C@H](CC)CC(=O)[C@H](C)C(=O)[C@@](O)(CO)C/C(OC)=C/[C@@H](C)C1 [RUSTMICIN] | 27200 | 13 | 16 | – | – | IC50 [1]: 3.8 nM; IC50 [5]: 3.8 nM |
| CC[C@@H](C)[C@@H]1NC(=O)[C@@H]2CCCN2C(=O)[C@H](Cc2ccccc2)N(C)C(=O)[C@H](Cc2ccccc2)NC(=O)[C@H](C(C)C)N(C)C(=O)[C@@H]([C@H](C)CC)OC(=O)[C@H](C(C)(C)O)N(C)C(=O)[C@H](CC(C)C)NC(=O)[C@H](C(C)C)N(C)C1=O [AUREOBASIDIN A] (cyclo(F[NMeF]P[aIle][NMeV]L[NMeVal(β-OH)][X1][NMeV])) | – | – | 0.18 | tde | 0.2 | IC50 [6]: 0.2 nM; Ki [2]: 1400 nM; Ki [3]: 0.23 nM; Kinact [7]: 2.5 /us and 1.8 /us; inhibition [8]: Active; IC50 [9]: 0.2 nM; Ki [11]: 0.55 nM |
| CCCCCCCCC(=O)N(C)C(C(=O)O[C@@H](C(=O)N(C)CCc1ccc(OC)c(OC)c1)c1ccccc1)C(C)(C)O (stereo partly drawn) | – | – | 11800 | – | – | – |
| CCCCCCCCCC[C@H](C)[C@@H](O)[C@@H](C)/C=C(C)/C=C(\C)C(=O)[C@H](C)/C=C(\C)C(=O)O[C@H](CO)[C@@H](O)[C@H](O)C(=O)O [KHAFREFUNGIN] | 11300 | 43 | 0.43 | tde | 0.6 | – |
| CCCC(CCC)C(=O)N(C)C(C(=O)O[C@@H](C(=O)N(C)CCc1ccc(OC)c(OC)c1)c1ccccc1)C(C)(C)O (stereo partly drawn) | – | – | 7900 | – | – | – |
| COc1ccc(CCN(C)C(=O)[C@H](OC(=O)C(N(C)C(=O)CCCCCc2ccccc2)C(C)(C)O)c2ccccc2)cc1OC (stereo partly drawn) | – | – | 10500 | – | – | – |
